{
  "source": "patent US20100093861A1",
  "about": "“TREATMENT OF INSULIN RESISTANCE OR DISEASES ASSOCIATED WITH INSULIN RESISTANCE” (Stevia ApS, priority 2006, published 2010)",
  "key": {"[1]": {"tested_on": "Somatostatin", "experiment": "Affymetrix gene chip analysis of KKAy islets: Somatostatin", "assay_type": "in vivo, mice", "settings": "ISV vs. KKAy control islets, 9 weeks", "description": "(§1) cRNA preparation and in vitro transcription: In total 6 Affymetrix arrays MOE430 2.0 probe array cartridge were used i.e. for analysis of 3 replicas for the KKAy control group and the ISV group, respectively. Each of the 6 samples consisted of pooled RNA from 3-4 KKAy mice. Preparation of target for hybridization was prepared from 340 ng of total RNA using MessageAmp™ II aRNA Amplification Kits (Ambion), according to the manufacturers instructions. Arrays were hybridised and scanned as described elsewhere (Kruhoffer et al., 2005)."}, "[2]": {"tested_on": "Nkx2-2", "experiment": "Affymetrix gene chip analysis of KKAy islets: Nkx2-2", "assay_type": "in vivo, mice", "settings": "ISV vs. KKAy control islets, 9 weeks", "description": "as §1"}, "[3]": {"tested_on": "INS-1", "experiment": "Gene expression in islets from diabetic KKAy-mice, real time RT-PCR (Example 2): INS-1", "assay_type": "in vivo", "settings": "islets of KKAy-mice after nine weeks treatment, normalized to 18S rRNA", "description": "(§2) A the end of the nine week period of the in vivo study in example 1 RNA was purified from Islets, muscle, liver and fat from the three experimental groups, using standard techniques as described in Kiergen, RNA easy.\n(§3) Gene expression of PDX-1, IRS1, Beta2, 11beta-HSD-1, Akt1, C/EBP-alpha, CPT1, GLUT2, IGF1, IR and Ins1 was measured with Real time RT-PCR using Taq Man Assays normalized to 18S rRNA, using the standard protocol (ABI, USA). All reagents were obtained from (ABI, USA). All probes are standard probes obtainable from ABI, USA, under the specific probe code number, given in respect of each gene."}, "[4]": {"tested_on": "Beta2", "experiment": "Gene expression in islets from diabetic KKAy-mice, real time RT-PCR (Example 2): Beta2", "assay_type": "in vivo", "settings": "islets of KKAy-mice after nine weeks treatment, normalized to 18S rRNA", "description": "as §2, §3"}, "[5]": {"tested_on": "InsII", "experiment": "Affymetrix gene chip analysis of KKAy islets: InsII", "assay_type": "in vivo, mice", "settings": "ISV vs. KKAy control islets, 9 weeks", "description": "as §1"}, "[6]": {"tested_on": "Ins1", "experiment": "Relative real time RT-PCR in islets of KKAy mice (Example 3): Ins1", "assay_type": "in vivo", "settings": "9 weeks", "description": "(§4) Islets were isolated by the collagenase digestion technique. In brief, the animals were anesthetized with pentobarbital (50 mg/kg intraperitoneally) and midline laparotomy was performed. The pancreas was retrogradely filled with 3 mL ice-cold Hanks balanced salt solution (([HBSS] Sigma Chemical, St Louis, Mo.) supplemented with 0.3 mg/ml collagenase Boehringer Mannheim GmbH, Germany). The pancreas was subsequently removed and incubated for 19 minutes at 37° C. After rinsing in HBSS, the islets were handpicked under a stereomicroscope and immediately transferred to a tubes containing 1 ml Trizol (Gibco/Invitrogene, Calsbad, Calif., USA). The islets isolated from the NMRI mice were incubated overnight at 37° C. and 95% normal atmosphere/5% CO2 in 10 ml RPMI 1640 containing 11.1 mmol/L glucose supplemented with penicillin G and 100 μg/mL streptomycin (all Gibco/Invitrogene, Calsbad, Calif., USA).\n(§5) For each group, islets from 3-4 mice (180-200 islets) were pooled in 1 ml Trizol reagent (Gibco/lnvitrogene, Calsbad, Calif., USA) before RNA purification. Total RNA was extracted according to the manufactures' instructions. RNA was quantified by measuring absorbance at 260 and 280 nm. The quality of the RNA was checked by the Agilent 2100 bioanalyzer (Agilent, Santa Clara, USA). […]"}, "[7]": {"tested_on": "C/EBP-alpha", "experiment": "Gene expression in islets from diabetic KKAy-mice, real time RT-PCR (Example 2): C/EBP-alpha", "assay_type": "in vivo", "settings": "islets of KKAy-mice after nine weeks treatment, normalized to 18S rRNA", "description": "as §2, §3"}, "[8]": {"tested_on": "11-beta-HSD-1", "experiment": "Affymetrix gene chip analysis of KKAy islets: 11-beta-HSD-1", "assay_type": "in vivo, mice", "settings": "ISV vs. KKAy control islets, 9 weeks", "description": "as §1"}, "[9]": {"tested_on": "GLUT-2", "experiment": "Gene expression in islets from diabetic KKAy-mice, real time RT-PCR (Example 2): GLUT-2", "assay_type": "in vivo", "settings": "islets of KKAy-mice after nine weeks treatment, normalized to 18S rRNA", "description": "as §2, §3"}, "[10]": {"tested_on": "11-beta-HSD-1", "experiment": "Relative real time RT-PCR in islets of KKAy mice (Example 3): 11-beta-HSD-1", "assay_type": "in vivo", "settings": "9 weeks", "description": "as §4, §5"}, "[11]": {"tested_on": "C/EBPalpha", "experiment": "Relative real time RT-PCR in islets of KKAy mice (Example 3): C/EBPalpha", "assay_type": "in vivo", "settings": "9 weeks", "description": "as §4, §5"}},
  "data": [
    {"smiles": "C[C@@]12CC[C@@H]3[C@@](CC[C@H]4[C@@]3(C)CCC[C@@]4(C)C(=O)O)(CC1=O)C2", "note": "(single isomer, unassigned; ent-16) [ISV, ent-16-ketobeyeran-19-oic acid]", "values": [
      {"measurement": "array: increased expression in Somatostatin", "setting": "[1]", "result": 2.3, "unit": "fold"},
      {"measurement": "array: increased expression in Nkx2-2", "setting": "[2]", "result": 2.3, "unit": "fold"},
      {"measurement": "increased expression of INS-1 compared to standard diet", "setting": "[3]", "result": 132, "unit": "%"},
      {"measurement": "increased expression of beta2 compared to standard diet", "setting": "[4]", "result": 60, "unit": "%"},
      {"measurement": "array: change of InsII expression", "setting": "[5]", "result": "no changes"},
      {"measurement": "increase in Ins1 expression", "setting": "[6]; RT-PCR", "result": "more than 2 fold"},
      {"measurement": "increased expression of Ins1, ISV group vs. control group", "setting": "[6]; normalized to 18S rRNA", "result": 132, "unit": "%"},
      {"measurement": "decreased expression of C/EBPα compared to standard diet", "setting": "[7]", "result": 49, "unit": "%"},
      {"measurement": "array: change of 11-beta-HSD-1 expression", "setting": "[8]", "result": "down regulation"},
      {"measurement": "increased expression of GLUT-2 compared to standard diet", "setting": "[9]", "result": 60, "unit": "%"},
      {"measurement": "down regulation of 11-beta-HSD-1", "setting": "[10]; RT-PCR", "result": 2.5, "unit": "fold"},
      {"measurement": "decreased expression of 11-beta-HSD-1, ISV group vs. control group", "setting": "[10]; normalized to 18S rRNA", "result": 61, "unit": "%"},
      {"measurement": "reduction of C/EBP-alpha mRNA expression", "setting": "[11]; RT-PCR", "result": 2, "unit": "fold"},
      {"measurement": "decreased expression of C/EBPalpha, ISV group vs. control group", "setting": "[11]; normalized to 18S rRNA", "result": 49, "unit": "%"}
    ]}
  ]
}
